# Reference: a melting point compilation (Tetko et al.; mined from patent text by program, amines drawn as free bases though some values may be those of a salt)
row,Structure (SMILES),melting point [°C]
1,COc1ccc(C=C=C(C)C(=O)O)cc1,105 to 108
2,COc1cc(Nc2nccc(-c3cn(S(=O)(=O)c4ccccc4)c4ccccc34)n2)cc(OC)c1OC,202
3,CCN1CC(=O)N(C)c2cc(Nc3ncc(Cl)c(Nc4ccc(OC)c(CNCCO)c4)n3)c(OC)cc2C1,65 to 70
4,COc1cc2c3c(cccc3c1)C(=O)N(O)C2=O,236 to 239
5,FC(F)(F)c1cccc(-c2ccnc3c(Cl)cnn23)c1,155 to 157
6,CCCCCCc1cc2c(cc1C(=O)Oc1ccc(C(=O)O)cn1)CCCCC2(C)C,119 to 120
7,CC(C)(CNS(=O)(=O)C(F)(F)F)Cn1c(=O)c2cccc3ncc(c1=O)n32,196 to 198
8,COc1cc(Cl)ccc1CBr,42 to 45
9,CCOC(=O)Cn1c(=S)c2ccccc2n(Cc2ccc(Cl)cc2Cl)c1=O,138 to 139
10,COc1cc2c(=O)c(Cc3cccnc3)cn3c4cc(Br)ccc4c(=O)c(c1)c23,247 to 249
11,CN1CCN(CCCNC(=O)CN2CCCC2=O)CC1,93
12,Cn1cncc1-c1cnc(-c2ccccc2)nc1,144
13,COc1ccc(Cl)cc1-c1c(NCn2nnc3ccccc32)c(=O)[nH]c2ccc(C(F)(F)F)cc12,217 to 219
14,Clc1ccc2c(c1)Nc1ncccc1N=C2c1ccccc1,250 to 252
15,COc1ccc(Nc2nc(Cl)nc(Cl)n2)cc1,165 to 168
16,COc1ccc(CN(C)C2CCN(c3ccc([N+](=O)[O-])cc3)CC2)cc1,144 to 145
17,CC(C)=CCNC(=O)N1CC(Oc2cccc(C(F)(F)F)c2)C1,143 to 144
18,COCOc1cc(Cl)ccc1-c1cc(-c2cccc(C(=O)O)c2)c(C#N)c(NC(=O)c2ccco2)n1,214 to 216
19,COC(=O)CN(C)c1nc(-c2ccc(-c3ccccc3)cc2)c(C(=O)OC)s1,141
20,COc1cc(C(C)C)c(Oc2cnc(NC(CO)CO)nc2N)cc1I,158 to 159
21,CCOC(=O)C(=Cc1ccccc1)S(=O)(=O)NC(C)(C)C,111 to 113
22,CCCCCCCCCCCCCCCC(=O)NC(=O)OCc1nc(C(C)C)c(Sc2cc(Cl)cc(Cl)c2)n1CC,95 to 97
23,COc1ccc(C2Sc3ccccc3N(CCN(C)C)C(=O)C2OC(=O)c2ccccc2[N+](=O)[O-])cc1 (stereo unspecified),161 to 162
24,CC(C)Cn1c(=O)n(C)c(=O)c2c(-c3ccsc3)c(Cc3ccccc3C(F)(F)F)sc21,113 to 114
25,COc1ccc(Cn2cc[nH]c2=O)cc1,132
26,CCOC(=O)c1ccc([N+](=O)[O-])c(O)c1Br,58 to 61

row,Structure (SMILES),melting point [°C]
1,Nc1cnc2c(F)c(F)ccc2c1,161
2,CC(C)C(C)CCC(C)C1CCC2C3CCC4CC(OC(=O)c5ccccc5)CCC4(C)C3CCC12C (stereo unspecified),232 to 234
3,O=C(O)CCc1cnoc1-c1ccc(Cl)c(Cl)c1,171 to 172
4,COc1ccc(-c2nc3n(c2-c2ccncc2)CCC3)cc1,158
5,NC(=O)c1c(Cl)c(-c2ccccc2)n2c1CN(S(=O)(=O)c1ccc(Cl)cc1)CC2,123 to 125
6,CCN1C(=O)C(C(=O)Nc2ccc(F)cc2F)c2cc(C3(C)OCCO3)ccc21 (stereo unspecified),166 to 170
7,CCNC(=O)n1nc(Oc2ccc([N+](=O)[O-])c(C)c2)cc1C,67 to 69
8,Cc1ccc(C(=O)Nc2ccccc2O)cc1F,181 to 183
9,CC(=O)OCc1ccc2oc(=O)c(C(=O)Oc3ccccc3C#N)cc2c1,181 to 183
10,OC1(c2ccc(Cl)c(Cl)c2)CCNCC1,144 to 146
11,NNc1ccc(S(=O)(=O)c2ccc(NN)cc2)cc1,179 to 183
12,O=C1[C@H]2CCC[C@H]2N(C(=O)CBr)c2ccccc2N1Cc1ccc([N+](=O)[O-])cc1 (relative stereo),160 to 162
13,O=C(O)c1cn(C2COC2)c2c(Cl)c(F)c(F)cc2c1=O,> 300
14,CCN(CC)c1cncc(C(=O)Nc2nnn[nH]2)n1,217 to 218
15,O=C(NS(=O)(=O)NC(=O)OCc1ccccc1)OCc1ccccc1,139 to 141
16,O=Cc1c(O)cccc1OCc1ccc(-c2nnn[nH]2)cc1,206
17,COc1cc2ncnc(N3CCCc4cc(C)ccc43)c2cc1OC,147 to 148
18,CN(C)CCNc1ccc2c3c(nn2CCNC(=O)OC(C)(C)C)-c2cnccc2C(=O)c13,225 to 227
19,COc1ccc(Nc2cc(C)nc(SCC#N)n2)cc1,128 to 131
20,CC(=O)N1CC(C)(C)c2cc3nc(-c4ccccc4)[nH]c3cc21,225 to 227
21,CN(C)c1ccc(CCBr)cc1,45 to 46
22,CC(C)(C)OC(=O)Nc1ccc2[nH]c(C(=O)OCc3ccccc3)cc2c1,180 to 182
23,c1cc2c3c(cccc3c1)C(NOCCCn1ccnc1)=N2,102 to 104
24,CC1(C)CC(=O)Nc2ccc(-c3cc(F)cc(C#N)c3)cc21,249 to 250
25,C=C(C(=O)Nc1ccc(CCc2nnco2)cc1)c1cnn(C)c1-c1ccc(F)cc1,177 to 178
26,O=C(Cn1nnnc1-c1ccc2ccccc2c1)OCCO,64 to 66

row,Structure (SMILES),melting point [°C]
1,CCOc1nc(C(F)(F)F)cc(=O)n1-c1cc(O)c(Br)cc1F,160 to 161
2,COc1ccc(C=NCC(OC)OC)cc1OC,50 to 52
3,NS(=O)(=O)c1cc(C(=O)NN(c2ccccc2)C2CCCCC2)ccc1Cl,216 to 217
4,O=Cc1ccn(-c2cc3c(cc2C(F)(F)F)[nH]c(=O)c(=O)n3CC(=O)O)c1,> 250
5,CCN1C(=Cc2ccc([N+](=O)[O-])cc2C#N)C=Cc2ccccc21,183 to 184
6,c1ccc(-n2c(Cc3cccnc3)nc3ccccc32)cc1,115 to 116
7,Cc1cc(C)nc(CCOc2ccc(NC(=O)N(C)C)cc2)c1,113 to 114
8,COC(=O)C(O)=CC(=O)N(Cc1ccc(F)cc1)Cc1ccc(F)cc1,118 to 120
9,CN1C(=O)CC[C@]2(C)c3ccc(-c4ccc5ncccc5c4)cc3CC[C@@H]12,185 to 190
10,COc1ccc2c(c1)C(=O)NCc1c(-c3nc(C4CC4)no3)ncn1-2,245
11,Cc1cc(O)ccc1-c1ccc(C=NO)c(Cl)c1,169 to 171
12,COC(=O)c1cncn1C1c2ccccc2C=CC1(C)C (stereo unspecified),60 to 61
13,CC(=O)Oc1cc(OC(C)=O)c2c(c1)OC(c1ccc(OC(C)=O)c(OC(C)=O)c1)CC2 (stereo unspecified),143 to 144
14,COc1cc(NC(=C(C#N)S(C)(=O)=O)C(C)C)cc(OC)c1,135 to 136
15,CC(/C=C/n1ncc(-c2ccc(S(N)(=O)=O)cc2)c(-c2ccc(F)cc2)c1=O)C(F)(F)F (stereo unspecified),155 to 157
16,CC(=O)NC[C@H]1CN(c2ccc(-c3ncno3)c(F)c2)C(=O)O1,199 to 200
17,Cc1cc(Br)cnc1CCCCNc1ncc(Cc2cccnc2)cc1N,85 to 87
18,CCOc1c(CO)cnc2c1c(C)nn2CC,85 to 86
19,COC(=O)C(Oc1nc(C)cc(OC)n1)C(OCC(C)(C)C(=O)OC)(c1ccccc1)c1ccccc1 (stereo unspecified),143
20,COc1cc(Br)c(OC)c(/C=C/C(=O)/C=C/c2cc(OC)cc(Br)c2OC)c1,122 to 125
21,CC(=O)Nc1cc(C(=O)c2ccccc2)ccc1[N+](=O)[O-],97.8
22,Cc1cc(C)c(CNc2cccc(S(=O)(=O)O)c2)c(C)c1,> 275
23,CCOC(=O)c1cnn2c(NCc3ccc(-c4ccccc4C#N)cc3)ccnc12,148 to 150
24,COc1ccccc1NC(=O)[C@@H]1Cc2[nH]cnc2CN1C(C)=O,159
25,CC1(C)OCC(CCBr)CO1,18
26,CC(C)Nc1nc(S(C)(=O)=O)nc(Cl)c1-c1c(F)cccc1Cl,145 to 149

row,Structure (SMILES),melting point [°C]
1,CCC1(CC)C(=O)N(C(C)C)CC(C)(C)N1OC(C)(C)C#N,84 to 89
2,CCOC(=O)c1cn(C2CC2)c2c(F)c(NCCO)c(F)c(F)c2c1=O,193 to 195
3,CCOc1ccc(-c2ccc3c(c2)C=C(C(=O)O)CCN3C=O)cc1F,220 to 222
4,CCOC(=O)Cn1ncc(-c2ccccc2)c1-c1ccc(O)cc1,130 to 135
5,CSC(=Cc1ccc(N)cc1)S(C)=O (stereo unspecified),165 to 166
6,COc1ccc(Cc2sccc2OC2OC(COC(C)=O)C(OC(C)=O)C(OC(C)=O)C2OC(C)=O)cc1 (stereo unspecified),116 to 118
7,Cc1c(C)c(N2Cc3ccccc3C2)c(C)c2c1OC(C)(C)C2c1ccc(F)cc1 (stereo unspecified),204 to 205
8,CCCCc1oc2ccccc2c1C(=O)NCc1ccc2c(-c3ccc(C(C)(C)C)cc3)c(O)ccc2c1,195 to 197
9,CC(C)(C)c1ccc(/C=N/OCCCOc2ccc(CCC(=O)O)cc2)cc1,101 to 102
10,CCNC(=O)Nc1nc2nc(NCCCN3CCN(C)CC3)ncc2cc1-c1c(Cl)cccc1Cl,82 to 90
11,COc1ccc(-c2nc(NC3=NCCN3)sc2-c2ccc(OC)cc2)cc1,211 to 214
12,CCCc1ncc(CC(=O)O)s1,95
13,O=C(O)C(Cc1cccc2c1CCCC2)Cc1cccc2c1CCCC2,144 to 146
14,CC1(C)Oc2ccccc2C=C1/C=C/C=C/C=C/C(=O)O,180 to 182
15,Cn1nc(-c2c(Cl)cncc2Cl)nc1Cc1ccc(Cl)cc1,142 to 143
16,CC(C)(N)c1ccc(-c2nc(Nc3ccc(F)c(Cl)c3)ncc2C#N)cc1,237
17,CCCCN1CNC(=O)NC1=O,205 to 207
18,O=C(CCC1CCCC1)Nc1cccc2ncccc12,135 to 138
19,CN(C)C(=O)COc1cc(Cl)ccc1C(=O)O,141 to 142
20,COc1cc(NC(C)=O)c(Cl)cc1C(=O)NN1CCN2CCCCC2C1 (stereo unspecified),200 to 201
21,Cc1c(-c2ccccc2)c(N2CC[C@H](N(C)C)C2)c2oc(-c3ccccc3N)nc2c1C#N,259 to 263
22,CCCCCCCCCCCCCCCCCCCCCCOC(=O)P(=O)(O)O,92 to 93
23,C=C(c1cc(OC)c(O)c2c(Cc3ccccc3)cccc12)C(C)(C)C(=O)O,162
